Test results from patent publication US20060216302A1, “Immunological markers” (priority 2003, published 2006).
Ends that are not written are not given here.

Experiments:
[1] = system: Lewis rats; test: Antigenicity and cross-reactivity in rats inoculated with marker-KLH conjugates, serum ELISA (Example 7); assay type: in vivo, rat; details: for Candidate Marker Antibody Reactivity RBM1 / Candidate Marker Antibody Reactivity RBM2 / Candidate Marker Antibody Reactivity RBM4 / Candidate Marker Antibody Reactivity RBM5 / Candidate Marker Antibody Reactivity RBM6 / Candidate Marker Antibody Reactivity RBM7: Table 3; for Candidate Marker Antibody Reactivity RBM1: serum (1/100) of Lewis rats inoculated s.c. with 1.0 mg marker-KLH conjugate in Freund's incomplete adjuvant, day 14-21, ELISA wells coated with RBM1; for Candidate Marker Antibody Reactivity RBM2 / Candidate Marker Antibody Reactivity RBM4 / Candidate Marker Antibody Reactivity RBM5 / Candidate Marker Antibody Reactivity RBM6 / Candidate Marker Antibody Reactivity RBM7: serum (1/100) of Lewis rats inoculated with marker-KLH conjugate; for Candidate Marker Antibody Reactivity RBM2: ELISA wells coated with RBM2; for Candidate Marker Antibody Reactivity RBM4: ELISA wells coated with RBM4; for Candidate Marker Antibody Reactivity RBM5: ELISA wells coated with RBM5; for Candidate Marker Antibody Reactivity RBM6: ELISA wells coated with RBM6; for Candidate Marker Antibody Reactivity RBM7: ELISA wells coated with RBM7; for Relative Absorbance ±SE at 405 nm, Candidate Marker RBM1 / Relative Absorbance ±SE at 405 nm, Candidate Marker RBM4 / Relative Absorbance ±SE at 405 nm, Candidate Marker RBM5 / Relative Absorbance ±SE at 405 nm, Candidate Marker RBM6: Table 4, N = 3, rats inoculated with marker-KLH conjugate, ** P < .01; for Relative Absorbance ±SE at 405 nm, Candidate Marker RBM1: ELISA against RBM1; for Relative Absorbance ±SE at 405 nm, Candidate Marker RBM4: ELISA against RBM4; for Relative Absorbance ±SE at 405 nm, Candidate Marker RBM5: ELISA against RBM5; for Relative Absorbance ±SE at 405 nm, Candidate Marker RBM6: ELISA against RBM6; for Cross-reactivity among the candidate markers: text summary of Table 3, rat sera after marker-KLH inoculation
[2] = system: human sera; test: ELISA cross-reactivity of candidate markers with human sera (Example 9); details: human serum diluted 1/1000, goat anti-human-HRP, non-specific binding subtracted
Experimental: Four samples of human sera were obtained with appropriate consent. 20 The frozen samples of cell-free sera were thawed and diluted to 1/1000 in phosphate buffered saline at pH 7.0. Aliquots (100 ul) of these diluted antisera were added to ELISA plates pre-adsorbed with the biomarkers as described in Table 1. A goat anti-human-HRP secondary antibody was used to quantitate the amount of antibody bound to the various marker peptides. Non-specific binding (determined by plating antisera onto PVA coated wells) was subtracted from the readings of the individual marker wells.

[3] = system: rats; test: Antigenicity in rats inoculated with free marker peptides, serum ELISA (Example 8); assay type: in vivo, rat; details: Table 5; for Candidate Marker Antibody Reactivity RBM1: rats inoculated with 1 mg free peptide (not KLH-conjugated) in Freund's incomplete adjuvant, ELISA against RBM1; for Candidate Marker Antibody Reactivity RBM2 / Candidate Marker Antibody Reactivity RBM3 / Candidate Marker Antibody Reactivity RBM4 / Candidate Marker Antibody Reactivity RBM5 / Candidate Marker Antibody Reactivity RBM6 / Candidate Marker Antibody Reactivity RBM7: rats inoculated with free peptide; for Candidate Marker Antibody Reactivity RBM2: ELISA against RBM2; for Candidate Marker Antibody Reactivity RBM3: ELISA against RBM3; for Candidate Marker Antibody Reactivity RBM4: ELISA against RBM4; for Candidate Marker Antibody Reactivity RBM5: ELISA against RBM5; for Candidate Marker Antibody Reactivity RBM6: ELISA against RBM6; for Candidate Marker Antibody Reactivity RBM7: ELISA against RBM7; for Antigenicity (measurable antibody response) of free marker peptide / Interference and cross-reaction with other marker candidates: rats; for Antigenicity (measurable antibody response) of free marker peptide: free peptide not conjugated to KLH; for Interference and cross-reaction with other marker candidates: free peptide
[4] = system: polyclonal sera against a range of infectious agents and hormones; test: ELISA cross-reactivity screen, whole panel of antisera; assay type: binding; details: whole panel of 12 antisera

| Substance | Candidate Marker Antibody Reactivity RBM1 [1] | Candidate Marker Antibody Reactivity RBM2 [1] | Candidate Marker Antibody Reactivity RBM4 [1] | Candidate Marker Antibody Reactivity RBM5 [1] | Relative Absorbance ±SE at 405 nm, Candidate Marker RBM1 [1] | Relative Absorbance ±SE at 405 nm, Candidate Marker RBM4 [1] | Relative Absorbance ±SE at 405 nm, Candidate Marker RBM5 [1] | Relative Absorbance ±SE at 405 nm, Candidate Marker RBM6 [1] | Candidate Marker Antibody Reactivity, Serum Sample 1 [2] | Candidate Marker Antibody Reactivity, Serum Sample 2 [2] | Candidate Marker Antibody Reactivity, Serum Sample 3 [2] | Candidate Marker Antibody Reactivity, Serum Sample 4 [2] | Candidate Marker Antibody Reactivity RBM1 [3] | Candidate Marker Antibody Reactivity RBM2 [3] | Candidate Marker Antibody Reactivity RBM3 [3] | Candidate Marker Antibody Reactivity RBM4 [3] | Candidate Marker Antibody Reactivity RBM5 [3] | Candidate Marker Antibody Reactivity RBM6 [3] | Candidate Marker Antibody Reactivity RBM7 [3] | Antigenicity (measurable antibody response) of free marker peptide [3] | other results |
| --- | --- | --- | --- | --- | --- | --- | --- | --- | --- | --- | --- | --- | --- | --- | --- | --- | --- | --- | --- | --- | --- |
| EGVYVPV [RBM5, peptide derived from the 5→3 reading of the cDNA encoding angiotensin II; T3 prints Glu-Gly-Val-Tyr-Val-His-Pro-Val] | −.018 | .068 | −.231 | .101 | .57 ± .25 | .15 ± .07 | 1.5 ± .44** | .50 ± .02 | .22 | .21 | −.02 | −.01 | – | – | – | – | – | – | – | – | Candidate Marker Antibody Reactivity RBM6 [1]: .006; Candidate Marker Antibody Reactivity RBM7 [1]: −.058; Cross-reactivity among the candidate markers [1]: cross-react weakly, but consistently |
| HRNYFHRNYF [RBM2] | .034 | .219 | −.037 | .041 | – | – | – | – | .26 | .05 | .27 | −.01 | −.02 | 3.34 | −.07 | −.01 | .05 | −.23 | −.05 | sufficiently antigenic to produce a measurable and consistent antibody response | Candidate Marker Antibody Reactivity RBM6 [1]: −.006; Candidate Marker Antibody Reactivity RBM7 [1]: .002; Cross-reactivity among the candidate markers [1]: cross-react weakly, but consistently; Interference and cross-reaction with other marker candidates [3]: did not interfere with each other's immune responses nor cross-react with other marker candidates |
| YFMYRRYFMYRR [RBM1] | – | – | – | – | .55 ± .15** | −.11 ± .14 | .11 ± .05 | .05 ± .07 | .16 | .01 | .08 | .01 | .00 | .20 | −.05 | −.04 | .1 | −.10 | .14 | failed to produce measurable immunity | – |
| WPHDMCWP [RBM7] | – | – | – | – | – | – | – | – | −.11 | .00 | .04 | −.02 | −.10 | .22 | −.06 | −.12 | .06 | −.10 | .63 | sufficiently antigenic to produce a measurable and consistent antibody response | Interference and cross-reaction with other marker candidates [3]: did not interfere with each other's immune responses nor cross-react with other marker candidates |
| WFYMYFWFYMYF [RBM3] | – | – | – | – | – | – | – | – | .07 | .05 | −.07 | −.01 | – | – | – | – | – | – | – | – | – |
| HWRWRMRMHWRWRMRM [RBM6] | – | – | – | – | .12 ± .03 | .02 ± .04 | −07 ± .15 | .84 ± .13** | .22 | .24 | −.09 | −.03 | −.07 | .39 | .02 | −.06 | .19 | −.01 | .12 | failed to produce measurable immunity | – |
| RLAHMYVGKT [RBM4, antisense peptide from angiotensin II complementary DNA, 3→5 direction; KLH conjugate for inoculation] | −.009 | .020 | .079 | .003 | .21 ± .06 | 2.26 ± .40** | .24 ± .23 | .32 ± .07 | .08 | .20 | −.16 | −.02 | – | – | – | – | – | – | – | – | Recognition by any antiserum tested [4]: did not cross-react; Candidate Marker Antibody Reactivity RBM6 [1]: −.035; Candidate Marker Antibody Reactivity RBM7 [1]: −.030 |
